As a reminder, the LD50 is the dose expected to kill half of the subjects tested. A higher LD50 goes with a less toxic substance.

The values that follow come from patent publication US5550161A, “Substituted orally effective ION chelators related to deferoxamine” (Oral-D, priority 1993, dated 1996).

Read-outs that look alike come from different tables or passages of the source.

Data set [1] is described as follows: Iron excretion (urine and stool) by hypertransfused iron-overloaded rats. It counts as in vivo, Sprague-Dawley rats. The note with it: for circulation time relative to DFO: intraperitoneal, inferred from increased urinary iron excretion; for Iron excreted, GROSS Stool / Iron excreted, GROSS Urine / Iron excreted, GROSS Stool, per μmole / Iron excreted, GROSS Urine, per μmole / Iron excreted, NET Stool, per μmole / Iron excreted, NET TOTAL, per μmole / Iron excreted, NET Urine, per μmole / Iron excreted, NET Stool / Iron excreted, NET Urine: 100 mg/kg; for Iron excreted, GROSS Stool, per μmole / Iron excreted, GROSS Urine, per μmole / Iron excreted, NET Stool, per μmole / Iron excreted, NET TOTAL, per μmole / Iron excreted, NET Urine, per μmole: normalized to molar dose; for absorption and cleavage after oral administration: inferred from net iron excretion; for Iron excreted, NET Stool / Iron excreted, NET Urine: gross minus background.
Experimental: In this model, heat-damaged rat erythrocytes are transfused intraperitoneally (i.p.) on a daily basis.
Deferoxamine mesylate (DFO:Desferal) was obtained from the Ciba Pharmaceutical Company (Summit, N.J.) as a lyophilized powder. For administration to the hypertransfused rats, it was dissolved in physiological saline at a concentration of 10 mg/ml.
A homogeneous solution of acylated derivative was obtained by dissolving the drugs in propylene glycol at a concentration of 30 mg/ml.
Sprague-Dawley rats (60-80 g; Taconic Farms, Germantown, N.Y. (were iron overloaded via daily (5 days/week) intraperitoneal injections of heat-damaged rat erythrocytes. The red blood cells for infusion were purchased from Hilltop Lab Animals, Inc. (Scottsdale, Pa.). They were obtained from retired breeders, the donor animals being exsanguinated via cardiac puncture under CO2 anesthesia. The blood drawn into acid-citrate-dextrose containing gentamicin sulfate (25 g/ml) and shipped on wet ice by overnight express to the testing laboratory. Upon arrival the blood was stored at 4° C. for up to 7 days. Prior to infusion the red cells were slightly damaged by heating at 50° C. for 15 minutes.
The animals were placed on a low iron diet (>10 μg of Fe/g) for one week prior to screening. […] During screening the animals were placed in individual metabolic cages and urine and stool were collected daily. The daily transfusion of heat-damaged red cells was continued throughout drug testing and during intervals of rest between drug evaluations. The compounds were administered either by gavage (orally) or by intraperitoneal injection 4 to 8 hours after the animals were transfused. The dose of each drug was 100 mg/kg/day for 5 days. Urine and stool samples were collected approximately 24 hours after drug administration. They were placed in crucibles, dried at 110° C. and then ashed at 550° C. overnight. Following dissolution of the ash in 3N HCl, the iron content of the samples was determined by atomic absorption spectroscopy.
The iron-overloaded rats were divided into groups of six. Before testing any of the new compounds both positive and negative controls were evaluated. Baseline excretion of iron in the urine and stool of this series of hypertransfused rats was determined in the absence of drug administration (negative control). As a positive control, another group of six animals was given DFO intraperitoneally at a dose of 100 mg/kg (153 micromoles/kg). […] All of the drugs were evaluated both orally and intraperitoneally. The intraperitoneal effect was used to assess bioavailability.
In the prodrugs, where the hydroxamic acid moieties (iron binding sites) of DFO were blocked, effectiveness upon parenteral administration would indicate that the rat is able to metabolize the prodrug to the active species. Failure to be effective orally could then be attributed to lack of absorption. […] In order to obtain an estimate of the relative iron-chelating potency within the series, the amount of iron excreted in response to the acylated derivatives was normalized to correspond to the molar equivalent of 100 mg/kg DFO.

For data set [2] the following is noted: cited from earlier work.
A short description of data set [3]: Intraperitoneal LD50 in Swiss-Webster mice. The note with it: for LD50: mouse, in vivo, ip.
Data set [4] can be described thus: Solubility in water and ordinary organic solvents. Particulars: in words. It counts as physicochemical.
Where [5] appears, read: ip, 100 mg/kg, DFO (historic), n=54.

In the case of `CCCC(=O)NCCCCCN(OC(=O)CCC)C(=O)CCC(=O)NCCCCCN(OC(=O)CCC)C(=O)CCC(=O)NCCCCCN(OC(=O)CCC)C(C)=O` [BDB3, N-Butyroyl-O,O,O-tributyryl deferoxamine], the “circulation time relative to DFO” value in data set [1] is given as “circulate for a longer period of time than DFO”. Besides, in data set [1] (ip, acylated derivatives), the “Iron excreted, GROSS Stool” value was 875 µg/kg/day and the “Iron excreted, GROSS Urine” value worked out at 174 µg/kg/day. Also, in data set [1] (ip), the “Iron excreted, GROSS Stool, per μmole” value was determined as 7.35 µg/kg/day/µmol; the “Iron excreted, GROSS Urine, per μmole” value was 1.46 µg/kg/day/µmol; the “Iron excreted, NET Stool, per μmole” value turned out to be 5.17 µg/kg/day/µmol; the “Iron excreted, NET TOTAL, per μmole” value is 6.12 µg/kg/day/µmol. Also, the “Iron excreted, NET Urine, per μmole” value in data set [1] (ip) was 0.95 µg/kg/day/µmol. In addition, the “absorption and cleavage after oral administration” value (“absorption and cleavage” for short) in data set [1] (oral) is “efficiently absorbed and subsequently cleaved”. Further, in data set [1] (po), the “Iron excreted, GROSS Stool” value was found to be 507 µg/kg/day; the “Iron excreted, GROSS Urine” value turned out to be 91 µg/kg/day; the “Iron excreted, GROSS Stool, per μmole” value stood at 4.26 µg/kg/day/µmol; the “Iron excreted, GROSS Urine, per μmole” value was found to be 0.76 µg/kg/day/µmol. In data set [1] (po), the “Iron excreted, NET Stool, per μmole” value is 2.08 µg/kg/day/µmol; the “Iron excreted, NET TOTAL, per μmole” value worked out at 2.33 µg/kg/day/µmol; the “Iron excreted, NET Urine, per μmole” value was determined as 0.25 µg/kg/day/µmol.
In the case of `CCCCCCCCCCCCCC(=O)NCCCCCN(OC(=O)CC)C(=O)CCC(=O)NCCCCCN(OC(=O)CC)C(=O)CCC(=O)NCCCCCN(OC(=O)CC)C(C)=O` [MDP3, N-Myristoyl-O,O,O-tripropionyl deferoxamine], in data set [1] (ip, acylated derivatives), the “Iron excreted, GROSS Stool” value was found to be 434 µg/kg/day and the “Iron excreted, GROSS Urine” value was 134 µg/kg/day. In data set [1] (ip), the “Iron excreted, GROSS Stool, per μmole” value was determined as 4.06 µg/kg/day/µmol; the “Iron excreted, GROSS Urine, per μmole” value stood at 1.25 µg/kg/day/µmol; the “Iron excreted, NET Stool, per μmole” value came out at 1.88 µg/kg/day/µmol; the “Iron excreted, NET TOTAL, per μmole” value stood at 2.62 µg/kg/day/µmol. Further, the “Iron excreted, NET Urine, per μmole” value in data set [1] (ip) amounted to 0.74 µg/kg/day/µmol. The “increase of potency (absorption) on lengthening N-terminal amide from 3 to 14 carbons” value in data set [1] (oral, MDP3 vs PDP3) is “two-thirds”. Also, in data set [1] (po), the “Iron excreted, GROSS Stool” value stood at 551 µg/kg/day; the “Iron excreted, GROSS Urine” value was 88 µg/kg/day; the “Iron excreted, GROSS Stool, per μmole” value stood at 5.15 µg/kg/day/µmol; the “Iron excreted, GROSS Urine, per μmole” value stood at 0.82 µg/kg/day/µmol. Besides, in data set [1] (po), the “Iron excreted, NET Stool, per μmole” value was 2.97 µg/kg/day/µmol; the “Iron excreted, NET TOTAL, per μmole” value stood at 3.28 µg/kg/day/µmol; the “Iron excreted, NET Urine, per μmole” value was 0.31 µg/kg/day/µmol.
Turning to `CCCCCCCC(=O)ON(CCCCCNC(=O)CCC(=O)N(CCCCCNC(=O)CCC(=O)N(CCCCCN(C(C)=O)C(=O)CCCCCCC)OC(=O)CCCCCCC)OC(=O)CCCCCCC)C(C)=O` [N-acetyl-N-octanoyl-O,O,O-trioctanoyldeferoxamine], the “increase of absorption on adding an N-acyl group” value in data set [1] (oral, vs N-acetyl-O,O,O-trioctanoyldeferoxamine, earlier unpublished data) was “about 50%”.
In the case of `CC(=O)N(O)CCCCCNC(=O)CCC(=O)N(O)CCCCCNC(=O)CCC(=O)N(O)CCCCCN` [DFO, N'-[5-[[4-[[-5-(acetylhydroxamino)pentyl]amino]-1,4-dioxobutyl]hydroxyamino]pentyl]-N-(5-aminopentyl)-N-hydroxybutanediamide, reference compound], in data set [1] (ip, DFO (historic)), the “Iron excreted, NET Stool” value is 465 µg/kg/day and the “Iron excreted, NET Urine” value is 87 µg/kg/day. Also, in data set [1] (ip), the “Iron excreted, GROSS Stool, per μmole” value came out at 5.60 µg/kg/day/µmol; the “Iron excreted, GROSS Urine, per μmole” value was 1.18 µg/kg/day/µmol; the “Iron excreted, NET Stool, per μmole” value was found to be 3.42 µg/kg/day/µmol; the “Iron excreted, NET TOTAL, per μmole” value was 4.09 µg/kg/day/µmol. Besides, in data set [1] (ip), the “Iron excreted, NET Urine, per μmole” value amounted to 0.67 µg/kg/day/µmol. Besides, in data set [1] (po), the “Iron excreted, GROSS Stool” value was 398 µg/kg/day; the “Iron excreted, GROSS Urine” value was 98 µg/kg/day; the “Iron excreted, GROSS Stool, per μmole” value came to 2.60 µg/kg/day/µmol; the “Iron excreted, GROSS Urine, per μmole” value worked out at 0.64 µg/kg/day/µmol. In data set [1] (po), the “Iron excreted, NET Stool, per μmole” value came out at 0.03 µg/kg/day/µmol; the “Iron excreted, NET TOTAL, per μmole” value amounted to 0.06 µg/kg/day/µmol; the “Iron excreted, NET Urine, per μmole” value came out at 0.03 µg/kg/day/µmol; the “Iron excreted, NET Stool” value is 6 µg/kg/day. In data set [1] (po), the “Iron excreted, NET Urine” value was found to be 5 µg/kg/day. In data set [2] (setting [5]), the “Iron excreted, GROSS Stool” value is 857 µg/kg/day and the “Iron excreted, GROSS Urine” value is 180 µg/kg/day. Moreover, the “effectiveness of oral relative to parenteral administration” value in data set [2] (oral vs parenteral, historical data) is listed as “less than 10%”. Besides, the LD50 in data set [3] was 800 mg/kg.
Turning to `CCC(=O)NCCCCCN(OC(=O)CC)C(=O)CCC(=O)NCCCCCN(OC(=O)CC)C(=O)CCC(=O)NCCCCCN(OC(=O)CC)C(C)=O` [PDP3, N-Propionyl-O,O,O-tripropionyl deferoxamine], the “circulation time relative to DFO” value in data set [1] is on record as “circulate for a longer period of time than DFO”. Besides, in data set [1] (ip, acylated derivatives), the “Iron excreted, GROSS Stool” value is 933 µg/kg/day and the “Iron excreted, GROSS Urine” value amounted to 179 µg/kg/day. Moreover, in data set [1] (ip), the “Iron excreted, GROSS Stool, per μmole” value is 7.29 µg/kg/day/µmol; the “Iron excreted, GROSS Urine, per μmole” value came to 1.40 µg/kg/day/µmol; the “Iron excreted, NET Stool, per μmole” value worked out at 5.11 µg/kg/day/µmol; the “Iron excreted, NET TOTAL, per μmole” value came to 6.00 µg/kg/day/µmol. Further, in data set [1] (ip), the “Iron excreted, NET Urine, per μmole” value was determined as 0.89 µg/kg/day/µmol. In addition, in data set [1] (oral), the “absorption and cleavage” value is “efficiently absorbed and subsequently cleaved”. In data set [1] (po), the “Iron excreted, GROSS Stool” value is 496 µg/kg/day; the “Iron excreted, GROSS Urine” value is 99 µg/kg/day; the “Iron excreted, GROSS Stool, per μmole” value amounted to 3.88 µg/kg/day/µmol; the “Iron excreted, GROSS Urine, per μmole” value was found to be 0.77 µg/kg/day/µmol. Moreover, in data set [1] (po), the “Iron excreted, NET Stool, per μmole” value worked out at 1.70 µg/kg/day/µmol; the “Iron excreted, NET TOTAL, per μmole” value stood at 1.96 µg/kg/day/µmol; the “Iron excreted, NET Urine, per μmole” value was 0.26 µg/kg/day/µmol.
For `CCCCCCCC(=O)NCCCCCN(O)C(=O)CCC(=O)NCCCCCN(O)C(=O)CCC(=O)NCCCCCN(O)C(C)=O` [N-octanoyl-O,O,O-trihydrogendeferoxamine], in data set [4], the “solubility in water and ordinary organic solvents” value is listed as “sparingly soluble”.
Take `CCCCC(=O)NCCCCCN(OC(=O)CCCC)C(=O)CCC(=O)NCCCCCN(OC(=O)CCCC)C(=O)CCC(=O)NCCCCCN(OC(=O)CCCC)C(C)=O` [VDV3, N-Valeroyl-O,O,O-trivaleroyl deferoxamine]: the “relative activity among derivatives tested” value in data set [1] (in words) is given as “most active derivative tested”. Also, the “circulation time relative to DFO” value in data set [1] was “circulate for a longer period of time than DFO”. Further, in data set [1] (ip, acylated derivatives), the “Iron excreted, GROSS Stool” value is 966 µg/kg/day and the “Iron excreted, GROSS Urine” value was determined as 184 µg/kg/day. Besides, in data set [1] (ip), the “Iron excreted, GROSS Stool, per μmole” value stood at 8.63 µg/kg/day/µmol; the “Iron excreted, GROSS Urine, per μmole” value was 1.64 µg/kg/day/µmol; the “Iron excreted, NET Stool, per μmole” value was determined as 6.45 µg/kg/day/µmol; the “Iron excreted, NET TOTAL, per μmole” value came out at 7.58 µg/kg/day/µmol. Moreover, the “Iron excreted, NET Urine, per μmole” value in data set [1] (ip) was found to be 1.13 µg/kg/day/µmol. Also, the “absorption and cleavage” value in data set [1] (oral) was “efficiently absorbed and subsequently cleaved”. For the same compound, the “iron excretion relative to oral DFO” value in data set [1] (oral, vs DFO given orally) was “more than 60 times”. In addition, in data set [1] (po), the “Iron excreted, GROSS Stool” value came out at 599 µg/kg/day; the “Iron excreted, GROSS Urine” value is 133 µg/kg/day; the “Iron excreted, GROSS Stool, per μmole” value stood at 5.35 µg/kg/day/µmol; the “Iron excreted, GROSS Urine, per μmole” value was determined as 1.19 µg/kg/day/µmol. For the same compound, in data set [1] (po), the “Iron excreted, NET Stool, per μmole” value is 3.17 µg/kg/day/µmol; the “Iron excreted, NET TOTAL, per μmole” value was determined as 3.85 µg/kg/day/µmol; the “Iron excreted, NET Urine, per μmole” value worked out at 0.68 µg/kg/day/µmol. The systemic toxicity entry in data set [3] (in words) is given as “lack of systemic toxicity”. For the same compound, the LD50 in data set [3] turned out to be 800 mg/kg.
